Reference: US9724380B2, “Method and compositions for synchronizing time of insemination in gilts” (JBS UNITED ANIMAL HEALTH II LLC, priority 2012, dated 2017)

Legend:
gilts [1] = assay: Example 1: ovulation monitored by transrectal ultrasonography after 200 mcg triptorelin gel intravaginally at 96, 120 or 144 h after MATRIX withdrawal; type: in vivo, swine; conditions: 200 mcg T, raw average, PTK 1-07 (rep 3)
Experimental: All gilts were individually fed MATRIX® as a top-dress for 14 days at the recommended rate of 15 mg/gilt/day. Gilts were withdrawn from MATRIX® feeding (last top feed in the morning on Day 0) and allotted to treatments. Controls were treated with a 1.2% methylcellulose gel formulation without triptorelin at 96 hours following MATRIX® withdrawal (last top-dress). The remaining gilts received 200 mcg triptorelin, as the acetate, in a 1.2% methylcellulose gel formulation intravaginally at various times after MATRIX® withdrawal. The four treatments were: 1) vehicle gel (VG) treatment at 96 hours after MATRIX® withdrawal, 2) triptorelin gel (TG) treatment at 96 hours after MATRIX® withdrawal, 3) TG treatment at 120 hours after MATRIX® withdrawal and 4) TG treatment at 144 hours after MATRIX® withdrawal. All gilts were monitored for their estrous and ovulatory status as described below. Gilts included in replicate 1 were selected from terminal line commercial production gilts located in grow/finish barns. Sexual maturity, as indicated by one or more estrous periods, was not verified prior to the start of MATRIX® feeding. Gilts included in replicate 2 were selected from a maternal line gilt population. Sexual maturity was verified by at least one estrous period verified and recorded prior to starting MATRIX® feeding.
(§1) Triptorelin (pGlu-His-Trp-Ser-Tyr-D-Trp-Leu-Arg-Pro-Gly-NH2) was supplied in the acetate form, from Bachem, Torrance, Calif. (Item H-4075 CGMP grade). Triptorelin gel (200 μg/2 mL) was formulated by Argenta (Auckland, NZ) in a gel composed of Methocel Premium A4000 (Dow Chemical), citrate buffer (pH 5.5), NaCl, methionine and EDTA (as potential stabilizers) and methyl and propyl parabens (as preservatives). Fifty-four milliliters of triptorelin gel (100 mcg triptorelin acetate/mL) was packaged in Amber Borosilicate Glass Serum Vials (610206-50) with a Gray Butyl Pharmaceutical Serum Vial Stopper (73828A-SS) with a Standard Aluminum Seal (SAS20NAT). […] MATRIX® was supplied as the US commercially available form.
The ovulatory status of all gilts was monitored by transrectal ultrasonography. For replicate one, ovulation was monitored two times on Day 5, then three times a day from Day 6 to Day 8. For replicate two, ovulation was monitored three times a day from Day 5 to Day 8. An Aloka 500 ultrasound machine with a 7.5 MHz linear array transducer attached to a fixed-angle PVC stabilizing rod to facilitate insertion into the rectum was used for this purpose. The transducer and PVC rod were coated with a gynecological lubricant and gently inserted into the rectum until the ovaries were visualized, one at a time. The diameters of the three largest follicles were recorded (to the nearest 0.1 mm) at each scanning. A gilt was declared to have ovulated when the number of large follicles (≧6.5 mm) fell to less than 3.
A single 2 mL dose of triptorelin gel or vehicle gel was deposited within approximately 1-2 cm posterior to the cervix with a catheter similar to those used for artificial insemination. The dose was delivered using a standard multi-dose applicator attached to the catheter. A new disposable sheath, which surrounds the catheter, was used for each gilt.
Data were analyzed using the Mixed Models procedures of SAS. Models included main effects of time of treatment following the last feeding of MATRIX®, replicate, and treatment by replicate interaction. Differences between treatments were tested on least squares means estimates using the T test at P<0.05. Data for analysis were tested for assumptions of data normality.

gilts [2] = assay: Example 5: estrus observation after triptorelin gel dose groups; type: in vivo, swine; conditions: raw average, PTK 2-07
Experimental: All gilts were individually fed MATRIX® as a top-dress for 14 or 15 days at the recommended rate of 15 mg/gilt/day. Gilts were withdrawn from MATRIX® feeding (last top-dress in the morning on Day 0) and allocated to each of the following treatments. Controls were vehicle gel treated (vehicle gel without triptorelin) at 120 (+/−2) hours following MATRIX® withdrawal (last top dress). The other gilts were given 100, 200 or 400 mcg triptorelin as the acetate in a methylcellulose gel formulation 120 (+/−2) hours following MATRIX® withdrawal. The four treatments were: • 1. Vehicle gel (VG): vehicle gel without triptorelin at 120 (+/−2) hours after MATRIX® withdrawal. • 2. TG 100: 100 mcg (2 mL 50 mcg/mL) triptorelin gel at 120 (+/−2) hours after MATRIX® withdrawal. • 3. TG 200: 200 mcg (2 mL 100 mcg/mL) triptorelin gel at 120 (+/−2) hours after MATRIX® withdrawal. • 4. TG 400: 400 mcg (2 mL 200 mcg/mL) triptorelin gel at 120 (+/−2) hours after MATRIX® withdrawal.
as §1, with “(100-400 mcg/2 mL dose)” for “(200 μg/2 mL)”, “methionine,” for “methionine and EDTA (as potential stabilizers)”, “parabens.” for “parabens (as preservatives).”
For post-treatment estrus detection, gilts were housed in individual pens. Boars were housed in separate rooms, and/or at least 12 m away and downwind. To elicit signs of estrus, a mature boar was walked slowly in the alley in front of the gilts' crates, exposing each test gilt to visual, auditory and olfactory signals from the boar for up to 5 minutes. In keeping with standard practice at commercial farms, while the boar was near the front of the gilt's crate, estrus was tested by an experienced person applying back pressure to the midsection of the gilt combined with side rubbing. Estrus was confirmed when a gilt stood rigidly to the back pressure, with no vocalization and with some indication of an ear reflex. Gilts were not exposed to boars during the first three days after withdrawal of MATRIX® (Day 0 to Day 2). Estrus detection was performed daily on all gilts from Day 3 to Day 7.
A single 2 mL dose of triptorelin gel or vehicle gel was deposited within approximately 1-2 cm posterior to the cervix with a catheter similar to those used for artificial insemination. The dose was delivered using a standard multi-dose applicator attached to the catheter. […]

Q: With `CC(C)C[C@H](NC(=O)[C@@H](Cc1c[nH]c2ccccc12)NC(=O)[C@H](Cc1ccc(O)cc1)NC(=O)[C@H](CO)NC(=O)[C@H](Cc1c[nH]c2ccccc12)NC(=O)[C@H](Cc1c[nH]cn1)NC(=O)[C@@H]1CCC(=O)N1)C(=O)N[C@@H](CCCNC(=N)N)C(=O)N1CCC[C@H]1C(=O)NCC(N)=O` [T, pGlu-His-Trp-Ser-Tyr-D-Trp-Leu-Arg-Pro-Gly-NH2] as the compound, how does the “% of Sows Ovulating” value (gilts [1]; 128 h post-MATRIX (8 h post-T)) read?
A: 0.0%

Q: What about the “% of Sows Ovulating” value (gilts [1]; 136 h post-MATRIX (16 h post-T)) of the same compound?
A: 10.0%

Q: And the “% of Sows Ovulating” value (gilts [1]; 144 h post-MATRIX (24 h post-T))?
A: 30.0%

Q: What about the “% of Sows Ovulating” value (gilts [1]; 152 h post-MATRIX (32 h post-T)) of the same compound?
A: 70.0%

Q: And the “% of Sows Ovulating” value (gilts [1]; 160 h post-MATRIX (40 h post-T))?
A: 80.0%

Q: And the “% of Sows Ovulating” value (gilts [1]; 168 h post-MATRIX (48 h post-T))?
A: 90.0%

Q: And the “% of Sows Ovulating” value (gilts [1]; 176 h post-MATRIX (56 h post-T))?
A: 100.0%

Q: What about the “Estrous Expression (%)” value (gilts [2]; 100 mcg T at 120 h post-MATRIX) of the same compound?
A: 75.0%

Q: What about the “Estrous Expression (%)” value (gilts [2]; 200 mcg T at 120 h post-MATRIX) of the same compound?
A: 81.0%
